Results: patent US11045554B1 (National Technology & Engineering Solutions of Sandia, LLC, priority 2018, dated 2021)
In brackets after ≈: the same amount, converted by molar mass.

How the values were obtained:
HeLa cells = format: cell-based
[1] = pH 7.4; cited from earlier work
[2] = system: VEEV (ZPC738 virulent strain); assay: microbe, parasite or virus in culture; format: cell-based, Venezuelan equine encephalitis virus (VEEV)
TC-83 [3] = settings: mouse, in vivo, ip; cited from earlier work
[4] = system: VEEV vaccine strain (TC-83); settings: cited from earlier work
TC-83 virus = assay: microbe, parasite or virus in culture; format: cell-based, Venezuelan equine encephalitis virus (VEEV)
TC-83 [5] = system: TC-83; set-up: species or system C3H/HeN mice; settings: mouse, in vivo
[6] = Venezuelan equine encephalitis virus, HeLa, 24 h

## O=C(N/N=C/c1ccc(O)c(O)c1)c1cc2ccccc2cc1O [DYN, dynasore]
HeLa cells
  LC-MSN internalization in presence of inhibitor (in words): clearly inhibited
  reduction of the percentage of cells that internalized LC-MSNs: 71%

## CCCCCCCCCCCCCC(=O)O[C@@H]1[C@@H](C)[C@@]2(O)[C@@H](C=C(CO)C[C@]3(O)C(=O)C(C)=C[C@@H]23)[C@@H]2C(C)(C)[C@]12OC(C)=O [PMA, phorbol 12-myristate 13-acetate]
HeLa cells
  LC-MSN internalization in presence of inhibitor (in words): not

## CO/C1=C\C(C)=C\[C@@H](C)[C@@H](O)[C@@H](C)C/C(C)=C/C=C/[C@H](OC)[C@@H]([C@@H](C)[C@@H](O)[C@H](C)[C@@]2(O)C[C@@H](O)[C@H](C)[C@@H](C(C)C)O2)OC1=O [BAF, bafilomycin A]
HeLa cells
  LC-MSN internalization / uptake in presence of inhibitor (in words): almost completely inhibited
  LC-MSN internalization in presence of inhibitor (in words): clearly inhibited

## CN(C)CCCN1c2ccccc2Sc2ccc(Cl)cc21 [CPZ, chlorpromazine]
HeLa cells
  LC-MSN internalization in presence of inhibitor (in words): clearly inhibited
  reduction of the percentage of cells that internalized LC-MSNs: 84%

## CN1CCN(C)C(=Nc2ccc([N+](=O)[O-])cc2C(=O)Nc2ccccc2)C1 [ML336, 2-[(1,4-dimethylpiperazin-2-ylidene)amino]-5-nitro-N-phenylbenzamide]
[1]
  solubility: 40 µg/mL (≈ 109 µM)
[2]; HeLa cells, 24 hours
  VEEV viral inhibition (in words): dose-dependent manner
[2]; [6]
  IC50: 15 nM
TC-83 [3]
  survival rate: 71%
[4]; at nanomolar concentrations
  reduction of viral titer: 630,000 fold
[4]
  EC90: 170 nM
TC-83 virus; HeLa cells, increasing concentration or LC-MSN mass
  TC-83 viral inhibition (in words): dose-dependent manner
TC-83 virus; [6]
  IC50: 163 nM
TC-83 [5]
  brain viral load / titer vs PBS (in words): not significantly different from PBS treated animals

## Oc1ccc2ccccc2c1SSc1c(O)ccc2ccccc12 [IPA-3]
HeLa cells
  LC-MSN internalization in presence of inhibitor (in words): not
